One data set concerns the target T1, DNA-PK kinase (Homo sapiens, UniProt P78527).
T1 construct: purchased Promega V4107
As to the kind of experiment: Inhibition assay of DNA-PK kinase (Promega kit, ADP-Glo chemiluminescence). Type of data set: biochemical. As to conditions: 50 µM ATP, 37° C., 60 min; read-out: IC50 (nM), inhibitory activity on DNA-PK kinase. The procedure: The inhibitory activity of the compounds on DNA-PK kinase was measured by using a DNA-PK kinase assay kit (purchased from Promega, Cat.#: V4107, Lot: 0000366495). The results were quantified by chemiluminescence, and the detailed experimental protocol was as follows: • i. An ADP-fluorescence standard curve over a range of concentrations was plotted according to the kit instructions; • ii. […] The mixtures were mixed well, centrifuged (1000 rpm, 30 s), and incubated at 37° C. for 60 min; • iv. 5 µL of ADP-Glo™ Reagent was added to stop the reaction, which was then mixed well, centrifuged (1000 rpm, 30 s), and incubated at room temperature for 40 min; • v. 10 µL Kinase Detection Reagent was added, and the mixture was mixed well by shaking, centrifuged (1000 rpm, 30 s), and incubated at room temperature for 30 min; • vi. The […] was measured by using a microplate reader (Thermo fisher, Varioskan LUX).

Data set [1] can be described thus: Pharmacokinetic assay in ICR mice (i.v. and p.o.). The data set is classed as in vivo. As to conditions: mouse, plasma, male ICR mice; for half-life: read-out: T½ (converted); for bioavailability: po 10 mg/kg vs iv 1 mg/kg. Here is the method:
ICR mice were purchased from Beijing Vital River Laboratory Animal Technology Co., Ltd.
3.2 Experimental procedure • (1) Healthy male ICR mice (18-22 g) were prepared, with 18 mice for each compound. The mice were divided into 2 groups (an i.v. group and a p.o. group), with 9 mice per group. 3 mice were picked for blood collection at each time point. • (2) After the animals were fasted overnight (with free access to water), the compound of the present invention dissolved (or suspended) in a solvent of 5% DMSO and 95% 30% HP-β-CD (v:v) was administered via the tail vein (i.v., 1 mg/kg) or intragastrically (p.o., 10 mg/kg), respectively. • (3) For the i.v. group, 0.1 mL blood was collected from the submandibular vein 5 min, 15 min, 0.5 h, 1 h, 2 h, 4 h, 8 h, 12 h, and 24 h after administration, respectively, anticoagulated with EDTA-K2, and centrifuged at 4° C. for 5 min to obtain plasma, which was stored at -20° C. until testing. (4) For the p.o. group, 0.1 mL blood was collected from the submandibular vein before administration and 15 min, 0.5 h, 1 h, 2 h, 4 h, 6 h, 8 h, 12 h, and 24 h after administration, and treated in the same manner as that for the intravenous group. • (5) The concentration of the compound of the present invention in plasma was measured by LC/MS/MS. • (6) Calculation and fitting were performed with Analyst 1.6 from AB Company, and the results are shown in Table 3.

SMILES strings stand for the structures. Like-named read-outs stand apart in the source and are kept apart here.

Turning to `CNC(=O)c1cc(C)c(Nc2ncc3c(n2)n(C2CCOCC2)c(=O)n3C)cc1F` [Compound 36, 2-Fluoro-N,5-dimethyl-4-((7-methyl-8-oxo-9-(tetrahydro-2H-pyran-4-yl)-8,9-dihydro-7H-purin-2-yl)amino)benzamide], on DNA-PK kinase, the IC50 is 17.9 nM. On to `Cc1cc(C(F)(F)F)ccc1Nc1ncc2c(n1)n(C1CCOCC1)c(=O)n2C` [Compound 3, 7-Methyl-2-((2-methyl-4-(trifluoromethyl)phenyl)amino)-9-(tetrahydro-2H-pyran-4-yl)-7,9-dihydro-8H-purin-8-one], for which the concentration for half-maximal inhibition (IC50) at DNA-PK kinase came to 18.6 nM. Still for that read-out and setting: to `COC(=O)c1cc(C)c(Nc2ncc3c(n2)n(C2CCOCC2)c(=O)n3C)cc1F` [Compound 51] belongs 34.1 nM; to `Cc1cc(C#N)ccc1Nc1ncc2c(n1)n(C1CCS(=O)(=O)CC1)c(=O)n2C` [Compound 101, 4-((9-(1,1-dioxidotetrahydro-2H-thiopyran-4-yl)-7-methyl-8-oxo-8,9-dihydro-7H-purin-2-yl)amino)-3-methylbenzonitrile], 9.6 nM; to `Cc1cc(C(N)=O)c(F)cc1Nc1ncc2c(n1)n(C1CCC(O)C1)c(=O)n2C` (stereo not shown) [Compound 67, 2-Fluoro-4-((9-(3-hydroxycyclopentyl)-7-methyl-8-oxo-8,9-dihydro-7H-purin-2-yl)amino)-5-methylbenzamide], 2.96 nM. On the same count and under the same terms, in the case of `Cc1cc(=O)[nH]cc1Nc1ncc2c(n1)n(C1CCOCC1)c(=O)n2C` [Compound 55, 7-Methyl-2-((4-methyl-6-oxo-1,6-dihydropyridin-3-yl)amino)-9-(tetrahydro-2H-pyran-4-yl)-7,9-dihydro-8H-purin-8-one] it was 14.8 nM.

Take `CO[C@H]1CC[C@@H](n2c(=O)n(C)c3cnc(Nc4cc(F)c(C(N)=O)cc4C)nc32)CC1` [Compound 70, 2-Fluoro-4-((9-(cis-4-methoxycyclohexyl)-7-methyl-8-oxo-8,9-dihydro-7H-purin-2-yl)amino)-5-methylbenzamide]: on DNA-PK kinase, the IC50 stood at 4.14 nM. With `Cc1cc(C(N)=O)c(F)cc1Nc1ncc2c(n1)n(C1C[C@H]3CC(O)C[C@H]3C1)c(=O)n2C` (stereo partly drawn) [Compound 84, 2-Fluoro-4-((9-((3aR,6aS)-5-hydroxyoctahydropentalen-2-yl)-7-methyl-8-oxo-8,9-dihydro-7H-purin-2-yl)amino)-5-methylbenzamide], at DNA-PK kinase, the IC50 was found to be 0.24 nM.

For the compound `Cc1cc(C(=O)NC2CC2)ccc1Nc1ncc2c(n1)n(C1CCOCC1)c(=O)n2C` [Compound 31, N-Cyclopropyl-3-methyl-4-((7-methyl-8-oxo-9-(tetrahydro-2H-pyran-4-yl)-8,9-dihydro-7H-purin-2-yl)amino)benzamide], the IC50 at DNA-PK kinase was found to be 31 nM. Still for that read-out and setting: in the case of `Cc1cc(C(N)=O)c(F)c(C)c1Nc1ncc2c(n1)n(C1CCOCC1)c(=O)n2C` [Compound 60, 2-Fluoro-3,5-dimethyl-4-((7-methyl-8-oxo-9-(tetrahydro-2H-pyran-4-yl)-8,9-dihydro-7H-purin-2-yl)amino)benzamide] it was 29.7 nM. With `[2H]C([2H])([2H])n1c(=O)n(C2CCOCC2)c2nc(Nc3ccc(C#N)cc3C)ncc21` (single isomer, unassigned) [Compound 6, 3-Methyl-4-((7-(methyl-d3)-8-oxo-9-(tetrahydro-2H-pyran-4-yl)-8,9-dihydro-7H-purin-2-yl)amino)benzonitrile], in data set [1] (iv, 1 mg/kg), the AUC came to 82.4 ng·h/mL and the half-life was 17.9 min. In addition, the bioavailability in data set [1] worked out at 179%. Further, in data set [1] (po, 10 mg/kg), the AUC is 1480 ng·h/mL, the Cmax was 1220 ng/mL and the half-life was 57.8 min. With `Cc1sc(C(=O)O)cc1Nc1ncc2c(n1)n(C1CCOCC1)c(=O)n2C` [Compound 41], in data set [1] (iv, 1 mg/kg), the AUC is 357 ng·h/mL and the half-life is 33 min. In addition, the bioavailability in data set [1] came out at 42.3%. In addition, in data set [1] (po, 10 mg/kg), the AUC was determined as 1500 ng·h/mL, the highest level (Cmax) was 2710 ng/mL and the half-life was 293 min.
